Measurements reported in publication PMC11403733, “Asymmetric Dirhodium-Catalyzed Modification of Immunomodulatory Imide Drugs and Their Biological Assessment” (ACS Medicinal Chemistry Letters, 2024).
Where “and” joins values, the source holds several entries; their conditions need not be identical. Identical values can stand only once.

Key:
CRBN = target: T1, CRBN (Homo sapiens, UniProt Q96SW2); assay: Fluorescence Resonance Energy Transfer-Based Cereblon Binding Assay (CRBN HTRF); settings: 0.5 nM 6×His-CRBN-DDB1, 20 nM tracer CC0782985, TR-FRET
T1 construct: (CRBN a.a. 1−442, DDB1 a.a); made in house
Description: (§1) Section 6: Assay Protocols
(§2) Fluorescence Resonance Energy Transfer-Based NSD@ PWWP Cereblon Binding Assay. […]
(§3) Compounds for testing were spotted into a 1536 well plate (Greiner Cat#782075). CRBN and Tracer solution were incubated in compound wells for 20 minutes. Detection mix containing Anti6xHis Tb Crytate (CisBio Cat#61HI2TLF) was then added to assay wells for a final 0.5x assay concentration of detection antibody (stock is provided at 400x). Plates were incubated for 30 minutes before being read on Pherastar FSX plate reader using TR-FRET module (Excitation 340nm, Emssion 615/665nm). ePL and HiBiT degradation assays
(§4) DF15 cells overexpressing ePL tagged GSPT1 (DF15/GSPT1 ePL OE) was used to monitor the degradation of GSPT1 induced by experimental compounds. MDS-L cells overexpressing ePL tagged CK1α and GSPT1G575N (MDS-L/CK1α ePL OE_ GSPT1G575N OE) was used to monitor the degradation of CK1α induced by experimental compounds. NCCIT cells with HiBiT tag knocked in at the c-terminus of SALL4 (NCCIT/SALL4-HiBiT KI) was used to monitor the degradation of SALL4 induced by experimental compounds. DF15 cells with HiBiT tag knocked in at the n-terminus of IKZF3 (DF15/HiBiT-IKZF3 KI) was used to monitor the degradation of AIOLOS (IKZF3) induced by experimental compounds. […]

IKZF3 (Aiolos) = target: T2, IKZF3 (Aiolos) (Homo sapiens, UniProt Q96SW2+Q9UKT9); assay: HiBiT degradation assay, DF15/HiBiT-IKZF3 KI cells; type: cell-based; settings: N ≥ 3; for EC50: degradation, 4 hr incubation, top conc 10 uM; for IKZF3 Ymin: depth of degradation (100% = no reduction of protein level, 0% = complete degradation), 4 hr
T2 construct: endogenous in cells; host or cells: DF15 (HiBiT knock-in)
Description: as §1, §2, §3, §4
(§5) The cell culture medium recipes, seeding densities and compound incubation time with cells are […]
(§6) Ta r g e t Cell line Cell culture medium Seeding Compound
(§7) (HI) FBS, 1mM sodium pyruvate, 25mM Hepes, 0.1% pluronic acid,
(§8) GSPT1G575N OE ng/mL of human recombinant IL3 […]
(§9) sodium pyruvate, 25mM Hepes, 0.1% pluronic acid, 1X NEAA
(§10) For all degradation assays, compounds were pre-spotted in a 153 6 well plate (Corning 3727) starting at 10uM with 3-fold serial dilution down 11 points in replicates using an Echo 650 series acoustic liquid handler. 5uL/well cells were seeded in the assay ready plate at the density and in […]
(§11) The final DMSO concentration in the cell culture was 0.25%. The plates were equilibrated at room temperature for 30 minutes before putting into a 37 °C CO2 incubator. After appropriate incubation period, plates were retrieved from the incubator and set at room temperature to equilibrate for 30 minutes, before adding ePL or HiBiT detection reagent. For ePL detection, the pre-prepared mixture of EA reagent, lysis buffer, and substrate reagent at ratio 1:1:4 from the DiscoverX InCELL Detection Kit (Eurofins 96-0079L) according to the manufacturer ’s recommendation was added 3ul/well into the plate. Plates were incubated in the dark for 1hr at room temperature before reading using a BMG PheraStar luminescence reader. For HiBiT detection, Nano-Glo HiBiT Lytic Reagent (Promega, N3050) prepared according to the manufacturer ’s recommendation was added 3 uL/well into the plate. Plates were incubated 30 minutes at room temperature in the dark before reading using a BMG PheraStar […]
(§12) To determine EC50 values for degradation, a four parameter logistic model (Sigmoidal Dose-Response Model) (FIT= (A+((B-A)/1+((C/x)^D)))) C is the inflection point (EC50), D is […] , A and B are the low and high limits of the fit respectively) was used to determine the compound’s EC50 value, which is the half maximum effective concentration. In the degradation assays, the Yconst of each compound was calculated by normalizing the lowest point of the fitted curve to the media only control, which is 0%, and the cells treated with DMSO control, which is 100%. All degradation curves were processed and evaluated using Dotmatics.
(§13) Section 7: Biological Data Tables

CK1α = target: T3, CK1α (Homo sapiens, UniProt P48729+Q96SW2); assay: ePL degradation assay, MDS-L/CK1α ePL OE_GSPT1G575N OE cells; type: cell-based; settings: for EC50: degradation, 4 hr incubation, top conc 10 uM, N ≥ 3, read-out: CK1a EC50; for CK1a Ymin: depth of degradation (100% = no reduction, 0% = complete degradation), 4 hr, N ≥ 3
T3 construct: expressed in transfected cells; host or cells: MDS-L
Description: as §1, §2, §3, §4, §5, §6, §7, §8, §9, §10, §11, §12, §13

GSPT1 = target: T4, GSPT1 (Homo sapiens, UniProt P15170+Q96SW2); assay: ePL degradation assay, DF15/GSPT1 ePL OE cells; type: cell-based; settings: N ≥ 3; for EC50: degradation, 20 hr incubation, top conc 10 uM; for GSPT1 Ymin: depth of degradation (100% = no reduction, 0% = complete degradation), 20 hr
T4 construct: expressed in transfected cells; host or cells: DF15
Description: as §1, §2, §3, §4, §5, §6, §7, §8, §9, §10, §11, §12, §13

SALL4 = target: T5, SALL4 (Homo sapiens, UniProt Q96SW2+Q9UJQ4); assay: HiBiT degradation assay, NCCIT/SALL4-HiBiT KI cells; type: cell-based; settings: N ≥ 3; for EC50: degradation, 2 hr incubation, top conc 10 uM; for SALL4 Ymin: depth of degradation (100% = no reduction, 0% = complete degradation), 2 hr
T5 construct: endogenous in cells; host or cells: NCCIT (HiBiT knock-in)
Description: as §1, §2, §3, §4, §5, §6, §7, §8, §9, §10, §11, §12, §13

T2 sequence (Q9UKT9 whole entry): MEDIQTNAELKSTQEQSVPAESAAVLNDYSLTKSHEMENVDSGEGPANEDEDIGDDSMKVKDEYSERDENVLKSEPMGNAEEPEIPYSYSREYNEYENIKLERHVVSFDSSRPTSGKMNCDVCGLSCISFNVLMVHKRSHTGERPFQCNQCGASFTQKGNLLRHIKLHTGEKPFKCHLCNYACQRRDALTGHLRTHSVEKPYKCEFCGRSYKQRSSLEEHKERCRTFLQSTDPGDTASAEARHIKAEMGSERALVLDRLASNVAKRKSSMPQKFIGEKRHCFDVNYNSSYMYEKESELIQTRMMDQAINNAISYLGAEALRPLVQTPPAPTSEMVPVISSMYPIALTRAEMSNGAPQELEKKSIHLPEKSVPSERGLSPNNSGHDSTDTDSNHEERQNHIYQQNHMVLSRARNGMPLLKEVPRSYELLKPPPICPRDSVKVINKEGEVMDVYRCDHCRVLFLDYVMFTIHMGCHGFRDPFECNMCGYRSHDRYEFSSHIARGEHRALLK
T2 sequence (Q96SW2 whole entry): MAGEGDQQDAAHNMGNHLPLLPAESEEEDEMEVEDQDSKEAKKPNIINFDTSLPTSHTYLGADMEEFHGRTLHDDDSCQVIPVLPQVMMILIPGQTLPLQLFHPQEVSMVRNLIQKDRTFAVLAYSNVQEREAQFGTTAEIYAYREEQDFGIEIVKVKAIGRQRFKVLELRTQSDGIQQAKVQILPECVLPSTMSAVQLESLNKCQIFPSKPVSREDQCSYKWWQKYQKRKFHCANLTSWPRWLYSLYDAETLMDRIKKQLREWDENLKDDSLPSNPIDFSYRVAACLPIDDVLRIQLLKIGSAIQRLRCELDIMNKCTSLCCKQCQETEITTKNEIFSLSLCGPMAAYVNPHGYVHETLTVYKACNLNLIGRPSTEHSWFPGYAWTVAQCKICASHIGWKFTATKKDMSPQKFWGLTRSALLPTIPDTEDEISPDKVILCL
T2 sequence (Q16531 whole entry partner): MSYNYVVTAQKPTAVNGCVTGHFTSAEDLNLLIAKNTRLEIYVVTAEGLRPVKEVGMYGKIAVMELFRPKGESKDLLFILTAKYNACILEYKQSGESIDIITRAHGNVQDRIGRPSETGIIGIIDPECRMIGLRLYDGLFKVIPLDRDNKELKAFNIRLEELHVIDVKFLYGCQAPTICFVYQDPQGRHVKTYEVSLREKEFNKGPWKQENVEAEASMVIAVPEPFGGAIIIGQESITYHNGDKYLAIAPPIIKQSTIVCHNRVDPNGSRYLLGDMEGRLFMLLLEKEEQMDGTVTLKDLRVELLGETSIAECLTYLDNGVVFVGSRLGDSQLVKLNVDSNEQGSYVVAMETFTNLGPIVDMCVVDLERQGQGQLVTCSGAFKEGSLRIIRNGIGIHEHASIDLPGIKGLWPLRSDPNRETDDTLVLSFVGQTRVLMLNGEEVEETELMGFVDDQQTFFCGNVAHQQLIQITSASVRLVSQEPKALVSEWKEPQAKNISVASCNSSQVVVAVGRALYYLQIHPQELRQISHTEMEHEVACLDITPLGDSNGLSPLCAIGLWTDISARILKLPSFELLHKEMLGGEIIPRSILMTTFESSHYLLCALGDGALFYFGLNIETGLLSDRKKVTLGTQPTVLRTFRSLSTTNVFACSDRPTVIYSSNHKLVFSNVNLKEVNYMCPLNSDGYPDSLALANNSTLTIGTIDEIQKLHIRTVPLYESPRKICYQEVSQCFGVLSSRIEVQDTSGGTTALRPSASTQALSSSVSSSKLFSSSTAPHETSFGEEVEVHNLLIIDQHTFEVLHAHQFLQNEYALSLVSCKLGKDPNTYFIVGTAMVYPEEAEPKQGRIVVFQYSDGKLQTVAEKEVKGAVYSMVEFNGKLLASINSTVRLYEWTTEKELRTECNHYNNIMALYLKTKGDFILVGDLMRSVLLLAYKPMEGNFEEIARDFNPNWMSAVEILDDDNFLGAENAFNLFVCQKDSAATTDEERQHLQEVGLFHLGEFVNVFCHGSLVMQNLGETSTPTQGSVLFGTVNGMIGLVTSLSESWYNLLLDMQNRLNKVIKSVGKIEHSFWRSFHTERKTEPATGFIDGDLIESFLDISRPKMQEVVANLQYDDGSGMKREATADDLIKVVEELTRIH
T4 sequence (P15170 1-637 isoform P15170-3): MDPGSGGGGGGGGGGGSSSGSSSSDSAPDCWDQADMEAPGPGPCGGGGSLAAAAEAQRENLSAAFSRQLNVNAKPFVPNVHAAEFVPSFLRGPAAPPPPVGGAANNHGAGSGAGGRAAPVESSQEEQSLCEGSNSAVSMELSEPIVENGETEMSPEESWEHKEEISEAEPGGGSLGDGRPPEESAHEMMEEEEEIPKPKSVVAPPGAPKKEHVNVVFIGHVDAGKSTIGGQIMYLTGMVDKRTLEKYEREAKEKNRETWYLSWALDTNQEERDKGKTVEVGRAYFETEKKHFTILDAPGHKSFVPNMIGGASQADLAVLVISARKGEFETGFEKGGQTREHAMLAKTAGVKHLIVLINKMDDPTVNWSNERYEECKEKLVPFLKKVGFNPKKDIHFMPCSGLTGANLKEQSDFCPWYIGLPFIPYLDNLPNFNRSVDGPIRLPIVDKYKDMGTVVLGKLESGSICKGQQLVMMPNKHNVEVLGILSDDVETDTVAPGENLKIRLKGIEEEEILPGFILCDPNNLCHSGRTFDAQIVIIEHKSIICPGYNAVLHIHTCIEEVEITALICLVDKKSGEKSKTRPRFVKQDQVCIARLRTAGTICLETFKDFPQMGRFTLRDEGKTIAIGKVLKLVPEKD
T4 sequence (Q96SW2 whole entry): as the sequence (Q96SW2 whole entry) above
T4 sequence (Q16531 whole entry partner): as the sequence (Q16531 whole entry partner) above
T5 sequence (Q9UJQ4 whole entry): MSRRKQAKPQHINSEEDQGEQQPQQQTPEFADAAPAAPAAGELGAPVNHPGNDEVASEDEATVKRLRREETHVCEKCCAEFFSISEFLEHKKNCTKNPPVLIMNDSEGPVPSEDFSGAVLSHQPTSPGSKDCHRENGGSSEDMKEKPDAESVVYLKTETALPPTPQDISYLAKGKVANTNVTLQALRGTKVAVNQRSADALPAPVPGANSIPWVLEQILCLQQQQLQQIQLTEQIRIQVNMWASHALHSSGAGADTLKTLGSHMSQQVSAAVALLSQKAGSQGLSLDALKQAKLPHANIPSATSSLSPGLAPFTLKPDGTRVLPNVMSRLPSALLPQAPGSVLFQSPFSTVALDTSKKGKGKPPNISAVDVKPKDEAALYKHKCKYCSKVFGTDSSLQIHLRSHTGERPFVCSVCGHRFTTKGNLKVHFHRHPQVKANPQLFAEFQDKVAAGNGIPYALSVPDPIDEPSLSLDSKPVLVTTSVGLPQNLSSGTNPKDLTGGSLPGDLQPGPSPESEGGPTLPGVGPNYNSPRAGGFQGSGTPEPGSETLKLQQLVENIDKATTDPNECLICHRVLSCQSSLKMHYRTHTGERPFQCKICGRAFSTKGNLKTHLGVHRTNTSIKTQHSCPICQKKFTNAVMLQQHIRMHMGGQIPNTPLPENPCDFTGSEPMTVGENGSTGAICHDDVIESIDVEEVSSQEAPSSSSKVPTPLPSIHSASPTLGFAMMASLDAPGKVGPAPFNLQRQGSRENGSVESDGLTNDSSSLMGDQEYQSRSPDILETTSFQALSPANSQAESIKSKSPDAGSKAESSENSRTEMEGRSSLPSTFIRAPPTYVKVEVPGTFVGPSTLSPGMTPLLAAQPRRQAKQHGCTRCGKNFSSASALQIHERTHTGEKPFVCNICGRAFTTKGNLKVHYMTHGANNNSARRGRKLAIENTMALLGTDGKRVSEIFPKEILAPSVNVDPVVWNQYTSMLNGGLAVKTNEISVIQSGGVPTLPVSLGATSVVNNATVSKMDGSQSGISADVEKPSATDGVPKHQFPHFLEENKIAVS
T5 sequence (Q96SW2 whole entry): as the sequence (Q96SW2 whole entry) above
T5 sequence (Q16531 whole entry partner): as the sequence (Q16531 whole entry partner) above
T1 sequence (Q96SW2 whole entry): as the sequence (Q96SW2 whole entry) above
T1 sequence (Q16531 whole entry partner): as the sequence (Q16531 whole entry partner) above
T3 sequence (P48729 whole entry): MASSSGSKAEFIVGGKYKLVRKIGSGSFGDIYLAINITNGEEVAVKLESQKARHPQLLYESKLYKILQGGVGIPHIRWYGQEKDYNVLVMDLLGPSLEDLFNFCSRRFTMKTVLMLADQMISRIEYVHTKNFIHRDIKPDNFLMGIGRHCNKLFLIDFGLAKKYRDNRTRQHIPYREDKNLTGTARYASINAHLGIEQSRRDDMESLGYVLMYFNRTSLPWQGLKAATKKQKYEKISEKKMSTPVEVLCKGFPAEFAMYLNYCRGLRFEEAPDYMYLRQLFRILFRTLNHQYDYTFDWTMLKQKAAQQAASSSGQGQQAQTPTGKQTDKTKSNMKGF
T3 sequence (Q96SW2 whole entry): as the sequence (Q96SW2 whole entry) above
T3 sequence (Q16531 whole entry partner): as the sequence (Q16531 whole entry partner) above

Structure (SMILES) | IC50 (CRBN) [µM] | EC50 (IKZF3 (Aiolos)) | IKZF3 Ymin (IKZF3 (Aiolos)) | EC50 (CK1α) [µM] | CK1a Ymin (CK1α) [%] | EC50 (GSPT1) [µM] | GSPT1 Ymin (GSPT1) [%] | EC50 (SALL4) [µM] | SALL4 Ymin (SALL4) [%]
O=C1CCC(N2Cc3ccc(C4=C[C@]4(C(=O)OCC(Cl)(Cl)Cl)c4ccc(Br)cc4)cc3C2=O)C(=O)N1 (some centres unmarked) [Compound 23a] | 0.98 | > 10 µM | 94 ± 2.3% | > 10 | 93 ± 10 | > 10 | 82 ± 7.1 | > 10 | 95 ± 6.5
O=C1CCC(N2Cc3cccc([C@H]4C[C@@]4(C(=O)OCC(Cl)(Cl)Cl)c4ccc(Br)cc4)c3C2=O)C(=O)N1 (some centres unmarked) [Compound 18b] | > 10 | > 10 µM | 96 ± 5.7% | > 10 | 91 ± 7.1 | > 10 | 83 ± 15 | > 10 | 96 ± 5.4
O=C1CCC(N2Cc3cccc([C@@H]4C[C@]4(C(=O)OCC(Cl)(Cl)Cl)c4ccc(Br)cc4)c3C2=O)C(=O)N1 (some centres unmarked) [Compound 18a] | > 10 | > 10 µM | 91 ± 0.6% | > 10 | 89 ± 1.7 | > 10 | 87 ± 6.5 | > 10 | 93 ± 3.8
O=C1CCC(N2Cc3cccc(C4=C[C@@]4(C(=O)OCC(Cl)(Cl)Cl)c4ccc(Br)cc4)c3C2=O)C(=O)N1 (some centres unmarked) [Compound 24b] | 2.9 | > 10 µM | 93 ± 2.5% | > 10 | 93 ± 6.8 | > 10 | 80 ± 4.3 | > 10 | 97 ± 5.2
O=C1CCC(N2Cc3c(cccc3C3=C[C@@]3(C(=O)OCC(Cl)(Cl)Cl)c3ccc(Br)cc3)C2=O)C(=O)N1 (some centres unmarked) [Compound 19b] | 0.35 | 0.11 ± 0.05 µM | 69 ± 3.3% and 69% | 1.5 ± 1.1 | 60 ± 7.4 | 0.55 ± 0.47 | 66 ± 5.5 | 0.17 ± 0.06 | 35 ± 5.9
O=C1CCC(N2Cc3c(cccc3[C@H]3C[C@@]3(C(=O)OCC(Cl)(Cl)Cl)c3ccc(Br)cc3)C2=O)C(=O)N1 (some centres unmarked) [Compound 13b] | 2.4 | > 10 µM | 97 ± 4.9% | > 10 | 90 ± 7.1 | > 10 | 99 ± 2.2 | > 10 | 97 ± 3.1
O=C1CCC(N2Cc3ccc([C@H]4C[C@@]4(C(=O)OCC(Cl)(Cl)Cl)c4ccc(Br)cc4)cc3C2=O)C(=O)N1 (some centres unmarked) [Compound 17b] | 2.5 | > 10 µM | 89 ± 6.5% | > 10 | 96 ± 12 | > 10 | 93 ± 5.8 | > 10 | 96 ± 3.1
O=C1CCC(N2Cc3cccc(C4=C[C@]4(C(=O)OCC(Cl)(Cl)Cl)c4ccc(Br)cc4)c3C2=O)C(=O)N1 (some centres unmarked) [Compound 24a] | 2.4 | > 10 µM | 97 ± 0.58% | > 10 | 96 ± 12 | > 10 | 85 ± 24 | > 10 | 95 ± 5.0
O=C1CCC(N2Cc3cc([C@@H]4C[C@]4(C(=O)OCC(Cl)(Cl)Cl)c4ccc(Br)cc4)ccc3C2=O)C(=O)N1 (some centres unmarked) [Compound 15a] | 0.39 | > 10 µM | 100 ± 4.6% | > 10 |  | > 10 | 96 ± 7.8 | > 10 | 99 ± 1.2
O=C1CCC(N2Cc3c(cccc3C3=C[C@]3(C(=O)OCC(Cl)(Cl)Cl)c3ccc(Br)cc3)C2=O)C(=O)N1 (some centres unmarked) [Compound 19a] | 0.16 | 0.012 µM |  | 0.17 ± 0.18 | 64 ± 4.3 | 0.17 ± 0.13 | 64 ± 8.7 | 0.019 ± 0.01 | 23 ± 4.5
O=C1CCC(N2C(=O)c3ccc(C4=C[C@@]4(C(=O)OCC(Cl)(Cl)Cl)c4ccc(Br)cc4)cc3C2=O)C(=O)N1 (some centres unmarked) [Compound 22b] | 7.8 | 0.31 ± 0.11 µM | 71 ± 9.7% | 1.6 ± 0.71 | 55 ± 39 |  |  | 2.4 ± 1.7 | 58 ± 3.2
O=C1CCC(N2C(=O)c3cccc([C@@H]4C[C@]4(C(=O)OCC(Cl)(Cl)Cl)c4ccc(Br)cc4)c3C2=O)C(=O)N1 (some centres unmarked) [Compound 14a] | > 10 | > 10 µM | 89 ± 3.2% | > 10 | 92 ± 3.8 | > 10 | 91 ± 16 | > 10 | 91 ± 8.0
O=C1CCC(N2Cc3cc([C@H]4C[C@@]4(C(=O)OCC(Cl)(Cl)Cl)c4ccc(Br)cc4)ccc3C2=O)C(=O)N1 (some centres unmarked) [Compound 15b] | 1.3 | > 10 µM | 89 ± 5.0% | 0.22 ± 0.089 |  | > 10 | 83 ± 7.0 | 0.16 ± 0.05 | 67 ± 5.4
O=C1CCC(N2Cc3cc(C4=C[C@]4(C(=O)OCC(Cl)(Cl)Cl)c4ccc(Br)cc4)ccc3C2=O)C(=O)N1 (some centres unmarked) [Compound 21a] | 0.59 | > 10 µM | 95 ± 7.6% | > 10 | 89 ± 9.3 | > 10 | 81 ± 17 | > 10 | 89 ± 4.2
O=C1CCC(N2Cc3ccc(C4=C[C@@]4(C(=O)OCC(Cl)(Cl)Cl)c4ccc(Br)cc4)cc3C2=O)C(=O)N1 (some centres unmarked) [Compound 23b] | 1.7 | > 10 µM | 81 ± 4.6% | > 10 | 95 ± 6.0 | > 10 | 88 ± 10 | > 10 | 91 ± 10
O=C1CCC(N2C(=O)c3ccc(C4=C[C@]4(C(=O)OCC(Cl)(Cl)Cl)c4ccc(Br)cc4)cc3C2=O)C(=O)N1 (some centres unmarked) [Compound 22a] | 5.7 | 1.3 ± 2.1 µM | 73 ± 6.2% | 1.2 ± 1.2 | 60 ± 26 | 1.1 ± 0.69 |  | 3.6 ± 0.74 | 67 ± 7.8
O=C1CCC(N2C(=O)c3cccc(C4=C[C@@]4(C(=O)OCC(Cl)(Cl)Cl)c4ccc(Br)cc4)c3C2=O)C(=O)N1 (some centres unmarked) [Compound 20b] |  | 3.7 µM and 3.67 µM | 10 ± 8.2% and 10% | 2.1 ± 1.3 | 54 ± 8.9 | 5.1 ± 1.4 | 17 ± 13 | 2.8 ± 1.6 | 57 ±7.7
